The source of these data is a melting point compilation (Tetko et al.; mined from patent text by program, amines drawn as free bases though some values may be those of a salt).

By melting point is commonly meant the temperature of the solid-liquid transition. `Cc1nc(-c2ccc(O)cc2)cc(-c2c(Cl)ccc(Cl)c2Cl)c1C#N`: the melting point lay in the range of 191 to 195 °C.
On to `Brc1ccc2ccc3ccccc3c2n1`, for which the melting point lay within 113 to 114 °C.
The value for `CCCCCN(CCCCC)C(=O)C(CCC(=O)OC)CS(=O)c1ccc(Cl)c(Cl)c1` (centres undefined) was 64 to 65 °C.
Compound `CC(C)(C)CCNC(=O)CN1C(=O)C2(COc3cc4c(cc32)CCO4)c2ccccc21` (centres undefined) registered a melting point of 161 to 163 °C.
Next, `CCc1cc2cc([N+](=O)[O-])ccc2o1`: 86 °C.
Next, `CCNC(=O)CC1CCN(Cc2cnc3cc(NC(=O)c4ccc(-c5ccc(Cl)cc5)cc4)ccc3c2)CC1`: 250 °C.
`CCCN(C)C(C)CN1CCc2c(c(=O)oc3cc(OC)c(OC)cc23)C1` (centres undefined): the melting point fell in the range of 81 to 85 °C.
The value for `COc1ccc(Sc2ccccc2C(C)C)cc1` was 63 to 65 °C; that for `O=C(CCCCO)c1cccnc1` was 36 to 38 °C.
Next, `O=C1OC(=O)c2c3cc(Cl)ccc3cc3cccc1c23`: 325 to 327 °C; `O=C1COc2cc(SCc3ccccc3)ccc2N1`: 153 to 154 °C.
Next, `Cc1cc(C)n(-c2nc(Nc3ccccc3C)c3ccccc3n2)n1`: 240 to 244 °C.
`CCOP(=O)(OCC)c1nc(Nc2ccccc2)nc(N2CCCC2)n1` came in with a melting point of 150 to 151 °C.
The value for `CCCN(CCCN1CCc2cc(OC)c(OC)cc2CC1=O)CCc1ccc(OC)c(OC)c1` was 56 to 70 °C; that for `COC(=O)c1cc(OCc2ccccc2)c2nc(C)n(C)c2c1` was 166 °C; that for `CC(=O)NCCc1ccc(CO)cc1` was 72 to 73 °C.
Next, `O=C1CCCC(=O)C1C(=O)c1ccc(OC(F)F)cc1Cl`: 68 to 72 °C.
In the case of `N#CN1CCC(Oc2c(F)c(F)c(F)c(F)c2F)(c2ccccc2)CC1`, the melting point was in the range of 117 to 120 °C.
Regarding `COc1cc(OC)cc(C2CN3CCC2CC3)c1` (centres undefined), the melting point lay in the range of 142 to 145 °C.
For the compound `O=Cc1cccnc1Br`, the melting point was 74 to 76 °C.
The compound `O=C1CCC(C(=O)N2CCN(CC(=O)N3CCOCC3)CC2)N1` (centres undefined) yielded a melting point of 167 to 169 °C.
As for `O=[N+]([O-])c1cc(F)c(Cl)cc1Cl`, the melting point was 39 to 42 °C.
Next, `CN1CCc2cccc3c2C1Cc1ccc(O)c(O)c1-3` (centres undefined): 158 to 160 °C; `O=C(NCc1ccc(Cl)cc1)c1ccc2sccc2c1O`: 168 to 169 °C; `CC(=O)OCC1OC(n2c(F)nc3c(N)ncnc32)C(OC(C)=O)C1OC(C)=O` (centres undefined): 98 to 101 °C.
For `CC(=O)NC[C@H]1CN(c2ccc(N3CCC(F)(CO)CC3)c(F)c2)C(=O)O1`, the melting point fell in the range of 154 to 156 °C.
Next, `NC(=O)N1C(=O)C(C(=O)c2ccccc2)c2nc(Cl)ccc21` (centres undefined): 220 °C; `CCc1cc(-c2ccncc2)cc(CC)c1C(C(N)=O)C(N)=O`: 184 to 186 °C; `CCCn1c(CCOC)nc2c(N)nc3cc(OC4CCN(S(C)(=O)=O)CC4)ccc3c21`: 224 to 226 °C.
The compound `CC(=O)Nc1cc(CCl)c(I)cn1` registered a melting point of 173 to 174 °C.
The value for `CC(C)NC(=O)c1cnc(N2CCC(N3C(=O)COc4ccccc43)CC2)c(Cl)c1` was 85 to 88 °C; that for `COC(=O)CCCc1cc2cc(Cl)ccc2n1S(=O)(=O)c1ccc2c(ccn2C(C)=O)c1` was 127 to 131 °C.
The value for `COc1ccc([C@@H]2Sc3ccccc3N(CCN(C)C)C(=O)[C@@H]2OC(=O)c2cc(Cl)ccc2[N+](=O)[O-])cc1` was 159 to 160 °C.
Next, `Cc1ccc([C@@H](O)C=CC(C)(C)C)cc1`: 38 to 40 °C.
Take `COCCNC(=O)c1cccc(-c2cccc3cc(C(C)(O)c4cccc(C(F)(F)F)c4)sc23)c1` (centres undefined): the melting point was in the range of 134 to 138 °C.
The value for `CCOC(=O)c1ccc(CCCC2NC(=O)CS2)cc1` (centres undefined) was 99 to 100 °C; that for `O=C(O)COc1ccc(CCc2ccc(N3CCNCC3)cc2)cc1` was above 250 °C; that for `Cc1cccc(C(=O)c2ccc(F)cc2)n1` was 53 to 54 °C.
As to `COc1cc(COc2nn(-c3ccccc3)cc2C=O)ccc1OCc1nc(N2CCCCC2)sc1C`, the melting point was in the range of 180 to 181 °C.
Next, `CCOC(=O)Cn1c(C(=O)NCc2nnc(C)n2-c2sc(CC)cc2C(=O)c2ccccc2Cl)cc2cc(F)ccc21`: 125 to 127 °C; `CCOCc1nc2c(N)nc3cc(/C=C/S(=O)(=O)c4ccccc4)ccc3c2n1CCCOC(C)C`: 188 to 190 °C; `CS(=O)(=O)OCCN(CCOS(C)(=O)=O)c1ccc([N+](=O)[O-])c(C(=O)O)c1[N+](=O)[O-]`: 200 to 210 °C.
`COC(=O)CCCc1oc(Cl)nc1-c1ccc(Cl)cc1`: the melting point was 73 to 74 °C.
Turning to `Nc1nc2cc(C(=O)c3ccccc3)ccc2n1CCC(=O)O`, the melting point lay within 325 to 330 °C.
In the case of `CCc1cnc2c(NC(=O)c3c(Cl)cccc3Cl)cccc2c1C(N)=O`, the melting point was 247 to 248 °C.
Next, `NC(=O)N(O)CC=Cc1ccc(-c2ccccc2)o1`: 157 to 158 °C; `CCOC(=O)C1=NN(C(=O)c2ccccc2)C(C(=O)OCC)=NN1C(=O)c1ccccc1`: 134 °C; `CCCOC(=O)c1ccc(OC(=O)c2ccccc2C(=O)Oc2ccc(C(=O)OCCC)cc2)cc1`: 87 to 89 °C.
The value for `O=[N+]([O-])c1ccc(S(=O)(=O)NCc2ccccc2C(F)(F)F)c([N+](=O)[O-])c1` was 157 to 158 °C; that for `CC(=O)N1c2ccccc2N(Cc2ccccc2)C(=O)[C@H]2CCC[C@H]21` (relative stereo) was 209 to 210 °C.
Compound `Cc1ncnc(O)c1C` came in with a melting point of 120 to 121 °C.
`O=S(=O)(NC(=NO)Nc1ccc(Cl)cc1)c1ccc(-c2ccccn2)s1` registered a melting point of 210 °C.
Next, `COC(=O)C(Cc1ccc(Cl)cc1Cl)c1ccccc1Cl` (centres undefined): 67.9 °C; `CC(C)(NCc1ncc[nH]1)c1ccc(Cl)cc1`: 164 to 165 °C.
For `CC(C)(C)NC(=O)OC1CCN(c2cccc(C(F)(F)F)c2)C1=O` (centres undefined), the melting point was 115 to 117 °C.
The value for `COc1ccc2c(c1)CCC1C3CCC(=O)C3(C)CCC21O` (centres undefined) was 69 to 74 °C; that for `Cc1cn(C(C)(C)C(=O)NC(C)(C)C)nc1-c1ccccc1` was 71 to 75 °C.
With `C=C1C(=O)c2ccccc2OC1(c1ccccc1)c1ccccc1`, the melting point was in the range of 165 to 167 °C.
The value for `CCCCCCCCCCCCC(C)(CS(=O)(=O)O)C(=O)O` (centres undefined) was 84 to 85 °C.
In turn, `CC1COc2c(F)c(F)cc3c(=O)c(C(=O)O)cn1c23` (centres undefined) returned a melting point above 280 °C.
The compound `COC(=O)c1ccc2c(c1)Sc1ccccc1CC2Br` (centres undefined) gave a melting point of 116 to 123 °C.
Next, `CCCCCCCCc1ccc(-c2cnc(-c3ccc(O)cc3F)nc2)cc1`: 167 °C; `CCOC(=O)c1cn2c3c(cc(C)cc3c1=O)OCC2C` (centres undefined): 195 to 197 °C; `O=C(O)c1cn(CCCc2ccccc2)c2cc(C3CC3)nn2c1=O`: 95 to 100 °C.
The value for `CC1(C)Oc2cc(C#N)c(C#N)cc2O1` was 202 to 203 °C; that for `COc1ccc2[nH]c(S(=O)Cc3ncc(C)c(N(C)C)c3Cl)nc2c1` (centres undefined) was 147 to 149 °C; that for `COC(=O)NC(C#N)Cc1ccc(OC)c(OC2CCCC2)c1` (centres undefined) was 121 to 122 °C.
For the compound `CN1C(=O)C(c2cn(C)c3ccccc23)=C(c2cn(C)c3ccccc23)C1=O`, the melting point is above 290 °C.
Next, `COc1cccc(OC)c1CNC(=O)c1ccc2c(c1)C(=NNc1ccc(S(N)(=O)=O)cc1)C(=O)N2`: above 250 °C; `Cc1nc(N2CCC(Cc3ccc(OC(F)F)cc3)C2=O)sc1C(=O)NCc1ccc(F)cc1` (centres undefined): 143 to 145 °C; `Nc1ccc(Oc2ccc3cc(Oc4ccc(N)c(O)c4)ccc3c2)cc1O`: 239 to 241 °C.
The value for `CC1(C)COc2ccc(F)cc2C(O)(c2ccccn2)C1` (centres undefined) was 110 °C; that for `CCC1(C(=O)OC)C(=O)Nc2cccc(Cl)c2CC1c1ccc(OC)cc1` (centres undefined) was 190 to 192 °C; that for `COCCn1cc2c(C3C(=O)Nc4ccc(Br)cc43)nc(NCc3cccnc3)nc2n1` (centres undefined) was 300 to 301 °C.
Next, `COc1ccc(F)c(C)c1NC(=O)OC(C)(C)C`: 81 to 82 °C; `COc1cc(N2C(=O)c3ccccc3C2=O)c(F)cc1C#N`: 245 °C; `CC(C)Oc1cc(CCCOc2nn(Cc3ccccc3)cc2CC(=O)O)n(Cc2ccc(F)cc2Cl)n1`: 121 to 123 °C.
The compound `CCOC(=O)C1CCN(C(=O)OCC)c2ccccc2C1O` (centres undefined) showed a melting point of 93 °C.
The value for `COc1ccccc1COc1ccc(S(=O)(=O)c2ccc(C)nc2Nc2ccc(Cl)cc2C#N)cc1` was 178 to 180 °C; that for `NC(=O)c1cc2cc(OCC3CO3)ccc2o1` (centres undefined) was 153 to 155 °C; that for `Cn1ncnc1COc1nc2c(-c3cc(F)ccc3F)nncn2c1-c1ccccc1` was 200 °C.
In the case of `CN(C)C(=O)C(N)=NNc1ccc(Cl)cc1C(=O)c1ccccc1Cl`, the melting point was 150 to 151 °C.
Regarding `CC(=O)ON1CC(NC(=O)OCc2ccccc2)C1=O` (centres undefined), the melting point is 130 to 131 °C.
The value for `N#CC(c1ccccc1)c1ccccn1` (racemic) was 89 °C; that for `CCCc1c(OCCCCCOc2cc3c(cc2C(C)=O)CC[C@@H](C(=O)O)O3)ccc(C(C)=O)c1O` was 94 to 97.5 °C.
On to `CC(=O)Nc1c(I)c(C(=O)NC(CO)CO)c(I)c(C(=O)NC(CO)CO)c1I`, for which the melting point is above 270 °C.
On to `CCOC(=O)c1ccc(NCc2ccccc2)nc1C(=O)OCC`, for which the melting point lay in the range of 110 to 114 °C.
Regarding `CCNC(=O)c1ccc(N2CCN(Cc3cc(C)c4c(c3)NC(=O)C(C)O4)CC2)c(C)c1` (centres undefined), the melting point lay within 223 to 230 °C.
The value for `Cc1nc(C)c(Cl)c(NCc2ccc(Oc3ccc4ncc([N+](=O)[O-])n4n3)c(OC(F)F)c2)n1` was 191 to 194 °C.
